# According to patent publication US9315475B2 (MERCK SHARP & DOHME CORP., priority 2011, dated 2016):
# Legend:
# HIV-1 (H9IIIB strain) = assay: Antiviral acute infection assay in cell culture (Spread); assay type: cell-based; conditions: Human immunodeficiency virus 1, T-lymphoid, HIV-1 H9IIIB infection of MT-4 human T-lymphoid cells in 10% FBS; mean of at least two independent experiments
# Excerpt: Antiviral Assays in Cell Culture (“Spread”)
# Acute Infection Assay (“Spread”) data were generated using HIV-1 (H9IIIB strain) infection of MT-4 human T-lymphoid cells in 10% FBS, and according to the methods disclosed by J. P. Vacca et al, “L-735,524: An orally bioavailable human immunodeficiency virus type 1 protease inhibitor,” Proc. Natl. Acad. Sci. USA, Vol. 91, pp. 4096-4100 (April 1994).
# wildtype HIV-1 protease = molecular target: T1, wildtype HIV-1 protease (Human immunodeficiency virus type 1 group M subtype B, UniProt P04585); assay: Assay for inhibition of microbial expressed HIV protease (Pepcleav); assay type: biochemical; conditions: wild type HIV-1 protease expressed in E. coli, peptide substrate, pH 5.5; mean of at least two independent experiments; read-out: Pepcleav
# T1 construct: the wildtype HIV-1 protease (which was expressed in Escherichia coli); made in house; host or cells: Escherichia coli
# Method in brief: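 Cleavage of 400 μM peptide substrate Val-Ser-Gln-Asn-(βnaphthyl)Ala-Pro-Ile-Val by 20 pM wild-type enzyme (E. coli-expressed) ran 1 h at 30 °C after 30 min inhibitor preincubation, pH 5.5 acetate buffer. Inhibition derived from product peak area by C18 LC with multiple-reaction-monitoring MS after formic acid quench.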
SMILES,EC50 (HIV-1 (H9IIIB strain)) [nM],IC50 (wildtype HIV-1 protease) [nM]
"C[C@H](NC(=O)OC[C@@H]1CO[C@H](CCc2c(F)cccc2NC(=O)[C@@H](N)C(c2ccc(F)cc2)c2ccc(F)cc2)CN1)c1ccc(F)cc1 [Example 212, 4-fluoro-N-[3-fluoro-2-(2-{(2R,5S)-5-[({[(1S)-1-(4-fluorophenyl)ethyl]carbamoyl}oxy)methyl]morpholin-2-yl}ethyl)phenyl]-β-(4-fluorophenyl)-L-phenylalaninamide]",810,11
"N[C@H](C(=O)Nc1cncc(F)c1CC[C@@H]1CN[C@H](COC(=O)NCC2CCCCO2)CO1)C(c1ccc(F)cc1)c1ccc(F)cc1 (stereo partly drawn) [Example 213, 4-fluoro-β-(4-fluorophenyl)-N-(5-fluoro-4-{2-[(2R,5S)-5-({[(tetrahydro-2H-pyran-2-ylmethyl)carbamoyl]oxy}methyl)morpholin-2-yl]ethyl}pyridin-3-yl)-L-phenylalaninamide]",61,6.1
"N[C@H](C(=O)Nc1cncc(F)c1CC[C@@H]1CN[C@H](COC(=O)NC2(c3ccccn3)CC2)CO1)C(c1ccc(F)cc1)c1ccc(F)cc1 [Example 214, 4-fluoro-β-(4-fluorophenyl)-N-(5-fluoro-4-{2-[(2R,5S)-5-({[(1-pyridin-2-ylcyclopropyl)carbamoyl]oxy}methyl)morpholin-2-yl]ethyl}pyridin-3-yl)-L-phenylalaninamide]",58,5.2
"N[C@H](C(=O)Nc1cncc(F)c1CC[C@@H]1CN[C@H](COC(=O)NC[C@H]2CCCO2)CO1)C(c1ccc(F)cc1)c1ccc(F)cc1 [Example 215, 4-fluoro-β-(4-fluorophenyl)-N-[5-fluoro-4-(2-{(2R,5S)-5-[({[(2R)-tetrahydrofuran-2-ylmethyl]carbamoyl}oxy)methyl]morpholin-2-yl}ethyl)pyridin-3-yl]-L-phenylalaninamide]",25,3.5
CC[C@@H](NC(=O)OC[C@@H]1CO[C@H](CCc2c(F)cncc2NC(=O)[C@@H](N)C(c2ccc(F)cc2)c2ccc(F)cc2)CN1)C(F)(F)F [Example 216],2000,3.3
"N[C@H](C(=O)Nc1cncc(F)c1CC[C@@H]1CN[C@H](COC(=O)NC2CC(F)(F)C2)CO1)C(c1ccc(F)cc1)c1ccc(F)cc1 [Example 217, N-(4-{2-[(2R,5S)-5-({[(3,3-difluorocyclobutyl)carbamoyl]oxy}methyl)morpholin-2-yl]ethyl}-5-fluoropyridin-3-yl)-4-fluoro-β-(4-fluorophenyl)-L-phenylalaninamide]",94,2.7
"N[C@H](C(=O)Nc1cncc(F)c1CC[C@@H]1CN[C@H](COC(=O)NCC(F)(F)F)CO1)[C@H](c1ccc(F)cc1)c1ccc(Cl)c(F)c1 [Example 221, (βR)-β-(4-chloro-3-fluorophenyl)-4-fluoro-N-(5-fluoro-4-{2-[(2R,5S)-5-({[(2,2,2-trifluoro-ethyl)carbamoyl]oxy}methyl)morpholin-2-yl]ethyl}pyridin-3-yl)-L-phenylalaninamide]",22,1.1
"N[C@H](C(=O)Nc1cncc(F)c1CC[C@@H]1CN[C@H](COC(=O)NC[C@@H]2CCC(=O)N2)CO1)C(c1ccc(F)cc1)c1ccc(F)cc1 [Example 235, 4-fluoro-N-(5-fluoro-4-{2-[(2R,5S)-5-{[({[(2S)-5-oxopyrrolidin-2-yl]methyl}carbamoyl)oxy]methyl}morpholin-2-yl]ethyl}pyridin-3-yl)-β-(4-fluorophenyl)-L-phenylalaninamide]",5000,97
"N[C@H](C(=O)Nc1cccc(F)c1CC[C@@H]1CN[C@H](COC(=O)NCC(F)(F)F)CO1)[C@H](c1ccccc1)c1ccc(OC(F)(F)F)cc1 [Example 236, (βR)-N-(3-fluoro-2-{2-[(2R,5S)-5-({[(2,2,2-trifluoroethyl)carbamoyl]oxy}methyl)morpholin-2-yl]ethyl}phenyl)-β-phenyl-O-(trifluoromethyl)-L-tyrosinamide]",580,69
"N[C@H](C(=O)Nc1cc(F)ccc1CC[C@@H]1CN[C@H](COC(=O)NCC(F)F)CO1)C(c1ccccc1)c1ccccc1 [Example 237, N-(2-{2-[(2R,5S)-5-({[(2,2-difluoroethyl)carbamoyl]oxy}methyl)morpholin-2-yl]ethyl}-5-fluorophenyl)-β-phenyl-L-phenylalaninamide]",190,69
"N[C@H](C(=O)Nc1cncc(F)c1CC[C@@H]1CN[C@H](COC(=O)NCC(F)(F)F)CO1)[C@H](c1ccccc1)c1ccc(OC(F)(F)F)cc1 [Example 238, (βR)-N-(5-fluoro-4-{2-[(2R,5S)-5-({[(2,2,2-trifluoroethyl)carbamoyl]oxy}methyl)morpholin-2-yl]ethyl}pyridin-3-yl)-β-phenyl-O-(trifluoromethyl)-L-tyrosinamide]",470,69
"N[C@H](C(=O)Nc1cncc(F)c1CC[C@@H]1CN[C@H](COC(=O)NCc2cc3ccccc3cn2)CO1)C(c1ccc(F)cc1)c1ccc(F)cc1 [Example 239, {(3S,6R)-6-[2-(3-fluoro-5-{[4-fluoro-β-(4-fluorophenyl)-L-phenylalanyl]amino}pyridin-4-yl)ethyl]morpholin-3-yl}methyl (isoquinolin-3-ylmethyl)carbamatc]",420,45
"N[C@H](C(=O)Nc1cncc(F)c1CC[C@@H]1CN[C@H](COC(=O)NCC2CNC(=O)O2)CO1)C(c1ccc(F)cc1)c1ccc(F)cc1 (stereo partly drawn) [Example 240, 4-fluoro-N-[5-fluoro-4-(2-{(2R,5S)-5-[({[(2-oxo-1,3-oxazolidin-5-yl)methyl]carbamoyl}oxy)methyl]morpholin-2-yl}ethyl)pyridin-3-yl]-β-(4-fluorophenyl)-L-phenylalaninamide]",5000,39
"N[C@H](C(=O)Nc1cccc(F)c1CC[C@@H]1CN[C@H](COC(=O)NCC(F)(F)F)CO1)[C@H](c1ccccc1)c1ccc2ccccc2c1 [Example 241, (βR)-N-(3-fluoro-2-{2-[(2R,5S)-5-({[(2,2,2-trifluoroethyl)carbamoyl]oxy}methyl)morpholin-2-yl]ethyl}phenyl)-β-naphthalen-2-yl-L-phenylalaninamide]",360,32
"N[C@H](C(=O)Nc1cncc(F)c1CC[C@@H]1CN[C@H](COC(=O)NCc2nc3ccncc3[nH]2)CO1)C(c1ccc(F)cc1)c1ccc(F)cc1 [Example 242, 4-fluoro-N-(5-fluoro-4-{2-[(2R,5S)-5-({[(3H-imidazo[4,5-c]pyridin-2-ylmethyl)carbamoyl]oxy}methyl)morpholin-2-yl]ethyl}pyridin-3-yl)-β-(4-fluorophenyl)-L-phenylalaninamide]",600,25
"N[C@H](C(=O)Nc1cncc(F)c1CC[C@@H]1CN[C@H](COC(=O)NCc2ccc3ccccc3n2)CO1)C(c1ccc(F)cc1)c1ccc(F)cc1 [Example 243, {(3S,6R)-6-[2-(3-fluoro-5-{[4-fluoro-β-(4-fluorophenyl)-L-phenylalanyl]amino}pyridin-4-yl)ethyl]morpholin-3-yl}methyl (quinolin-2-ylmethyl)carbamate]",240,24
"N[C@H](C(=O)Nc1cccc(F)c1CC[C@@H]1CN[C@H](COC(=O)NCC(F)(F)F)CO1)[C@H](c1ccccc1)c1cccc(Cl)c1 [Example 244, (βR)-3-chloro-N-(3-fluoro-2-{2-[(2R,5S)-5-({[(2,2,2-trifluoroethyl)carbamoyl]oxy}methyl)morpholin-2-yl]ethyl}phenyl)-β-phenyl-L-phenylalaninamide]",120,22
